The values below come from patent US20190203230A1, “POROUS MEMBRANE-BASED MACROMOLECULE DELIVERY SYSTEM” (NOVARTIS AG, priority 2016, published 2019).

SMILES strings stand for the structures.

This test relates to HbF. Nature of the test: Erythroid differentiation and HbF detection by flow cytometry. It counts as cell-based, human. Particulars: erythroid differentiation, flow cytometry (days 7 and 14 collected; day of the values not stated); UNC0638 at 0.5 μM. As to the method:
The present teachings (herein also referred to as TRIAMF for brevity) were applied for the delivery of RNPs consisting of guides targeting the HBG […] to recapitulate the genotype of a form of hereditary persistent fetal hemoglobin found in many patients. […] Through a combination of next generation sequencing (NGS) and quantitative PCR (qPCR), editing efficiency at the target site was determined to be a total average of 63% total editing.
FIG. 20 depicts percentage of HbF cells at D7 and D14 of erythroid differentiation protocol of WT, mock treated, HBG edited, and UNC0638 (Blood. 2015, July 30:126(5):665-72) positive control treated cells. Cells were analyzed by fixation and staining of CD235a,CD71, and HbF. The cells were collected on days 7 and 14 and stained with CD235a, CD71, and fetal hemoglobin, and analyzed with flow cytometry. […]

`COc1cc2c(NC3CCN(C(C)C)CC3)nc(C3CCCCC3)nc2cc1OCCCN1CCCC1` [UNC0638]: the “cells expressed HbF” value was 92%.
